Laboratory results published in patent US11857592B2, “Polygala extract for the treatment of attention-deficit hyperactivity disorder” (BioLite, Inc., priority 2020, dated 2024).

Tested on: ICR male mice
Test: In vivo tetrabenazine-induced hypothermia assay
Conditions: for activity discovered through in vivo tetrabenazine-induced hypothermia test: antidepressant-like activity in mice; for temperature recovery of TBZ-induced hypothermic response: oral gavage 60 min before TBZ 85 mg/kg i.p., 120 min after TBZ challenge
From the text: The around 70% of PDC-1421 in Example 1 are composed of sucroester (34%), saponin (18%) and xanthone (17%). Some active compounds of in the powder product of Example 1, including polygalatenosides A/B/C (2nd fraction 1), ploygalaxanthone III, sibiricoses A5, and 7-O-methylmangiferin are also discovered through in vivo tetrabenazine-induced hypothermia test (one of rodent models for evaluating antidepressant-like activity in mice). Imipramine (as the positive control), PDC-1421, 1st Fraction 10-19, 1st Fraction 33, 2nd Fraction-1 (wherein the major components are polygalatenosides A/B/C), 2nd Fraction-3, TMCA, Polygalaxanthone III, Onjisaponin B, Sibiricose A5, 7-O-Methylmangiferin and Sibiricaxanthone B are dissolved in water for injection (WFI) and administered by oral gavage. The dosing volume is 10 mL/kg. Test substances and vehicle (WFI) are administered by oral gavage to groups of 8 ICR male mice weighing 23±3 g for 60 minutes, and then tetrabenazine (TBZ, 85 mg/kg) is injected intraperitoneally. Body temperature is recorded before (0 min), and 60, 90 and 120 min after TBZ challenge. Therefore, drug-induced hypothermia (e.g., TBZ and reserpine) animal model is a typical experiment to evaluate the activity of NRI on depression. Temperature recovery of TBZ-induced hypothermic response is considered as indication of a anti-depressant activity.

Row | SMILES | activity discovered through in vivo tetrabenazine-induced hypothermia test | temperature recovery of TBZ-induced hypothermic response
1 | COc1cc(/C=C/C(=O)O[C@H]2[C@H](O)[C@@H](CO)O[C@@]2(CO)O[C@H]2O[C@H](CO)[C@@H](O)[C@H](O)[C@H]2O)ccc1O [Sibiricoses A5, Sibiricose A5] | active | had a temperature recovery
2 | COc1cc2c(=O)c3c(O)c([C@@H]4O[C@H](CO[C@@H]5OC[C@](O)(CO)[C@H]5O)[C@@H](O)[C@H](O)[C@H]4O)c(O)cc3oc2cc1O [Polygalaxanthone III] | active | had a temperature recovery
3 | COc1cc2c(=O)c3c(O)c([C@@H]4O[C@H](CO)[C@@H](O)[C@H](O)[C@H]4O)c(O)cc3oc2cc1O [7-O-Methylmangiferin] | active | had a temperature recovery
